US20220175776A1, “COMBINATION OF CHIR99021 AND VALPROIC ACID FOR TREATING HEARING LOSS” (Frequency Therapeutics, Inc., priority 2019, published 2022)
pIC50: −log10 of the molar value. Where two headings read alike, the source gives them in different places.

Experiments:
[1] = tested on: HDAC; settings: Table 4, HDAC class; cited from earlier work
[2] = tested on: Lgr5+ cochlear cells; experiment: Lgr5+ Assay (in vitro Lgr5+ cell proliferation assay); type: cell-based
[3] = human, in vivo
Description: Patients underwent physical examination of weight and height, vital signs (body temperature, pulse rate, blood pressure), 12-lead electrocardiogram (ECG), drug screen, clinical laboratory testing (hematology, serum chemistry, urinalysis), urine pregnancy test, and hepatitis B and C antibody tests.

[4] = target: T1, LSD1 (Homo sapiens, UniProt O60341); settings: Table 6, LSD1; read-out: pKi or IC50 (converted); cited from earlier work
[5] = target: EZH2 (Homo sapiens, UniProt O75530+Q15910); settings: Table 7; includes EED, SAM-competitive and SAH-hydrolase inhibitors; read-out: pKi or IC50 (converted); cited from earlier work
Chain of EZH2 (Homo sapiens, UniProt O75530+Q15910) (Q15910 whole entry): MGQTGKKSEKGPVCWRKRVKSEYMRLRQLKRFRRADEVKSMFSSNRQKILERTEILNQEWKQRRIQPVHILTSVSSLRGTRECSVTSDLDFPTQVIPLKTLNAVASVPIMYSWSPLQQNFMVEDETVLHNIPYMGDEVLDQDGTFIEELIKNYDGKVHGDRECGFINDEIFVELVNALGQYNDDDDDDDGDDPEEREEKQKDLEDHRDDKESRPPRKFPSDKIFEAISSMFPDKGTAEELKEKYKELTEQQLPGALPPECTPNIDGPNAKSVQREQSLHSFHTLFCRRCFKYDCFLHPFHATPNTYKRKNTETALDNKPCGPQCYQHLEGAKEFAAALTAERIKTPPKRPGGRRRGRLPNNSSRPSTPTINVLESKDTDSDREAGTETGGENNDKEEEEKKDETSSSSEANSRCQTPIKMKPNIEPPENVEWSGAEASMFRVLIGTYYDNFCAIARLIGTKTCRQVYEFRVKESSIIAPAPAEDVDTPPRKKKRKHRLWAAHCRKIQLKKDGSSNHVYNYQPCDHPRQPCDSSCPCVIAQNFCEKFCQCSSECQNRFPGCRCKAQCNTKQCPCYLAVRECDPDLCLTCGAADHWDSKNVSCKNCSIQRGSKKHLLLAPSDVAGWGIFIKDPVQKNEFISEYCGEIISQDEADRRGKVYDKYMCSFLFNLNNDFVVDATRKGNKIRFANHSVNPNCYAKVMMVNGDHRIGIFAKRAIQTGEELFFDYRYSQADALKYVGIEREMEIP
Chain of EZH2 (Homo sapiens, UniProt O75530+Q15910) (O75530 whole entry): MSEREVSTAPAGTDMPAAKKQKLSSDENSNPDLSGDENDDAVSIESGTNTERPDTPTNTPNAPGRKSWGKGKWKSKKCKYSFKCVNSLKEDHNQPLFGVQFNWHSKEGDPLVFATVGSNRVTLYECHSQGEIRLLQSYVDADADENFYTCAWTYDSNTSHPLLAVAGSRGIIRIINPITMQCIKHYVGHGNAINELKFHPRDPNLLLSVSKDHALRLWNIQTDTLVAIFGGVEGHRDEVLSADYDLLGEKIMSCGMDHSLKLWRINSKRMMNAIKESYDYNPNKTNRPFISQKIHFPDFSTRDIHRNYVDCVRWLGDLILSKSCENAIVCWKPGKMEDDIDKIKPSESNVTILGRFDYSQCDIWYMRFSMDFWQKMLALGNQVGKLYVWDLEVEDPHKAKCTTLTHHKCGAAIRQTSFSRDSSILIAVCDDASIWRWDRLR
Chain of EZH2 (Homo sapiens, UniProt O75530+Q15910) (Q15022 whole entry partner): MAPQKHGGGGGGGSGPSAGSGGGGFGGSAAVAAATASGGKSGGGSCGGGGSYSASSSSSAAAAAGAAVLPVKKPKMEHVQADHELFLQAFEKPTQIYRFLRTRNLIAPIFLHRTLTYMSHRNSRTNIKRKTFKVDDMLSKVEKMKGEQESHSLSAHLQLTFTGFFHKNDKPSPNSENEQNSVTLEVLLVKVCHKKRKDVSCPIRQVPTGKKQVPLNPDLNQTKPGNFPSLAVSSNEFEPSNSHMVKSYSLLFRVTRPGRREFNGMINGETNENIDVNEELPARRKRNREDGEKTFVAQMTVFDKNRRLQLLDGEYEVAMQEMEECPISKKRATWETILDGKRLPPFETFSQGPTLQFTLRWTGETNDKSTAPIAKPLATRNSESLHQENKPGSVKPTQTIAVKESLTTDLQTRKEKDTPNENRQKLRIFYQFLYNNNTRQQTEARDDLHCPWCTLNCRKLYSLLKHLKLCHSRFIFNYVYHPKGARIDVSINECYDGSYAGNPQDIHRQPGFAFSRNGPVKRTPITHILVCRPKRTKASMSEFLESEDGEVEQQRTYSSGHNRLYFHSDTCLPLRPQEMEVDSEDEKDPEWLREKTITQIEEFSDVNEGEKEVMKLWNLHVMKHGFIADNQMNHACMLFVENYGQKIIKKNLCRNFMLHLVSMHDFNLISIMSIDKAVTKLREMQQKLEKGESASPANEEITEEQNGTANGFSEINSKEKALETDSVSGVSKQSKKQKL
Chain of EZH2 (Homo sapiens, UniProt O75530+Q15910) (Q09028 whole entry partner): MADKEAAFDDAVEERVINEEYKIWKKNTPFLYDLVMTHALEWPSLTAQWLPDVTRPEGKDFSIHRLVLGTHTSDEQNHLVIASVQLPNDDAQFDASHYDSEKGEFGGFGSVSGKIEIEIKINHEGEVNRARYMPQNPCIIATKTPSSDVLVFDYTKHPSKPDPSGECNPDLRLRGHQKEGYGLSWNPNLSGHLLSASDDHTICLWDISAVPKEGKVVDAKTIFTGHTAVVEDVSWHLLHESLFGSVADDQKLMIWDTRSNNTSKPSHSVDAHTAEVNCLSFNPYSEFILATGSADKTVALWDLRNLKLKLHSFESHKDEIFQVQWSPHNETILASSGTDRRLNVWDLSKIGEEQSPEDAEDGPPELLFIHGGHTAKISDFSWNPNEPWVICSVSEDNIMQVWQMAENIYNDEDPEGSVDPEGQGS

[6] = target: EZH-1 (Homo sapiens, UniProt Q92800); settings: Table 7, cited from earlier work
Chain of EZH-1 (Q92800 whole entry): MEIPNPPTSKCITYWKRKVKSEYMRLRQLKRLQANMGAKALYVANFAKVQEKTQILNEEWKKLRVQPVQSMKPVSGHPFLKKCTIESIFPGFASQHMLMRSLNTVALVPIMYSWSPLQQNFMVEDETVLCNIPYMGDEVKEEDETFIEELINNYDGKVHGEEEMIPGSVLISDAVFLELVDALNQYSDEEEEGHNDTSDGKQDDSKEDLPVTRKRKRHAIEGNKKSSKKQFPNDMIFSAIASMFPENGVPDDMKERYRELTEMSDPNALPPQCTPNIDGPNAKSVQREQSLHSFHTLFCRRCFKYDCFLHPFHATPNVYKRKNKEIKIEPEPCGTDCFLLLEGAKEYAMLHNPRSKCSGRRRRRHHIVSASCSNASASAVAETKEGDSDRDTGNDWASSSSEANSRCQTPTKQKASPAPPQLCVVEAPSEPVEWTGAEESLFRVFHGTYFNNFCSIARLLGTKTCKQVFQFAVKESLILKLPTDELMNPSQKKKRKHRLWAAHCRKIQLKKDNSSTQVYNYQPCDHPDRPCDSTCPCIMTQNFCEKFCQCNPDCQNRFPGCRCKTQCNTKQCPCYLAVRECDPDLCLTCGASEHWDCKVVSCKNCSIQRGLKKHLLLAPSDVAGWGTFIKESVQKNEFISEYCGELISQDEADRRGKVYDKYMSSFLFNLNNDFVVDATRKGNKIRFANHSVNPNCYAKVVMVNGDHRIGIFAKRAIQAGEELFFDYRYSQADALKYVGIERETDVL
Chain of EZH-1 (O75530 whole entry partner): as the sequence (O75530 whole entry) above
Chain of EZH-1 (Q15022 whole entry partner): as the sequence (Q15022 whole entry partner) above
Chain of EZH-1 (Q09028 whole entry partner): as the sequence (Q09028 whole entry partner) above

[7] = target: EZH2 (Homo sapiens, UniProt Q15910); settings: Table 7; literature, cells not named; cited from earlier work
Chain of EZH2 (Homo sapiens, UniProt Q15910) (Q15910 whole entry, canonical isoform): as the sequence (Q15910 whole entry) above
Chain of EZH2 (Homo sapiens, UniProt Q15910) (O75530 whole entry partner, canonical isoform): as the sequence (O75530 whole entry) above
Chain of EZH2 (Homo sapiens, UniProt Q15910) (Q15022 whole entry partner, canonical isoform): as the sequence (Q15022 whole entry partner) above
Chain of EZH2 (Homo sapiens, UniProt Q15910) (Q09028 whole entry partner, canonical isoform): as the sequence (Q09028 whole entry partner) above

[8] = tested on: MAOs A and B; settings: Table 6, single value, isoform not stated; read-out: Select MAOs A and B; cited from earlier work
[9] = tested on: KDM; settings: Table 9; cited from earlier work
[10] = Table 6, human; cited from earlier work
[11] = target: T2, KDM1b (Homo sapiens, UniProt Q8NB78); settings: Table 6; read-out: Select KDM 1b; cited from earlier work
T2 sequence (Q8NB78 1-822): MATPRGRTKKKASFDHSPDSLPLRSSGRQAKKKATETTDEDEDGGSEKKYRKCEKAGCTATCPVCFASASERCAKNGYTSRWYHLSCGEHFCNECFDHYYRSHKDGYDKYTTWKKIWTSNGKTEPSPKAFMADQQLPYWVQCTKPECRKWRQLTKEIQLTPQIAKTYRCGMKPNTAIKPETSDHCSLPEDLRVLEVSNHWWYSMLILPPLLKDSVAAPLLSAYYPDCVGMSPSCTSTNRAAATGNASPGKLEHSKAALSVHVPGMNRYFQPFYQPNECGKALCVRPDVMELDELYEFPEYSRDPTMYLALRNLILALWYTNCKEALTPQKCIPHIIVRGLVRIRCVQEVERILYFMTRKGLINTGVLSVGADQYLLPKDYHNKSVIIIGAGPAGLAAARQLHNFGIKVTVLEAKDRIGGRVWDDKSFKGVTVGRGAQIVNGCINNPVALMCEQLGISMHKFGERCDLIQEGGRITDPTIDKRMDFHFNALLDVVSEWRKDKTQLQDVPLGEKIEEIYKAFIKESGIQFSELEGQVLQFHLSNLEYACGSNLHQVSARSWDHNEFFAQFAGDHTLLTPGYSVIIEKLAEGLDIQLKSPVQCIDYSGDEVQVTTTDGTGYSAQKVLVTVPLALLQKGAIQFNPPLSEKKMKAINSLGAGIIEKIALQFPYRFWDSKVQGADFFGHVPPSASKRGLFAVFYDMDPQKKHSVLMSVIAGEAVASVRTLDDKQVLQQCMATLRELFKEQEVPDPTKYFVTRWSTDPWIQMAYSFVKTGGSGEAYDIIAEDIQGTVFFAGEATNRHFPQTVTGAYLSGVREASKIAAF

[12] = target: T3, MAO A (Homo sapiens, UniProt P21397); settings: Table 6; marked A or first value of cell; read-out: Select MAOs A and B: MAO A; cited from earlier work
T3 sequence (P21397 1-527): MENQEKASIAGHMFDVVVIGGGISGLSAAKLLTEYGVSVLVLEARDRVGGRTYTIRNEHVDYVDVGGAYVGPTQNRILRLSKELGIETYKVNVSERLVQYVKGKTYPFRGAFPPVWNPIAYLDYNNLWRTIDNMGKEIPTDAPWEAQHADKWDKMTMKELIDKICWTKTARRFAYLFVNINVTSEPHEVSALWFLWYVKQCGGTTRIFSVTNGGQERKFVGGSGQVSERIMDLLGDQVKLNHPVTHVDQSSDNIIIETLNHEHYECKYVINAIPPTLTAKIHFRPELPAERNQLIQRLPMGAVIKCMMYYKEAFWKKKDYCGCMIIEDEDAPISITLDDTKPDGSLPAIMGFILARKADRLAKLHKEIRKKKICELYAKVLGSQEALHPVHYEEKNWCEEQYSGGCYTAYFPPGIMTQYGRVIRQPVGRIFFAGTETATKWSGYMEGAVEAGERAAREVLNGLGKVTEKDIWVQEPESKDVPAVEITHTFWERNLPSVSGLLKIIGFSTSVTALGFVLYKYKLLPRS

[13] = target: T1, LSD1; settings: Table 6; cited from earlier work
[14] = tested on: KDM2; settings: Table 9; read-out: Select KDM2; cited from earlier work
[15] = tested on: TAZ; settings: Table 10; literature, cells not named; cited from earlier work
[16] = Perilymph sampling after intratympanic injection, mass spectrometry; type: in vivo; settings: mice, perilymph of 7 animals, within 0.5 hours after intratympanic injection of 10 µL with 87.6 mg/ml NaVPA and 1.39 mg/ml CHIR99021
Procedure: The effects of CHIR99021 and valproic acid (VPA) on hearing in mice with SNHL were examined. Ten-week-old CBA/CaJ mice were deafened using an established method in which mice were exposed to 8-16 kHz octave band noise for 2 hours at ≥116 dB (Wang et al., 2002). […] Auditory brainstem responses (ABRs) were obtained using tone-burst stimuli for frequencies spanning ˜80% of the cochlea 24 hours after noise administration to establish a baseline for recovery. Animals were dosed once following the 24 hour ABR. Distortion product otoacoustic emissions (DPOAEs) were not routinely analyzed since thresholds after treatment were above DPOAE detection levels. CHIR99021 and VPA were delivered locally by intratympanic injection into the middle ear using a pulled glass pipette, a technique that mimics the standard clinical middle ear injection technique used in humans. The delivery vehicle was adapted from previous work using thermo-reversible poloxamer gels to deliver drugs into the middle ear for diffusion into the cochlea (Salt et al, 2011; Wang et al, 2009). […] Using established techniques (Hirose et al., 2014), perilymph was sampled from 7 animals and analyzed using mass spectrometry to determine entry of CHIR99021 and VPA into the cochlea. Within 0.5 hours, CHIR99021 was detected at 3.5 μM+1.5 μM and VPA was detected at 310.3 μM+51.8 μM. […]

[17] = Table 1, GSK3 inhibitors, concentration range
[18] = Table 7, EZH2 inhibitors, concentration range
[19] = Table 10, TAZ activators, concentration range

Compound: C#CCC(CCCCCC)C(=O)O (stereo not drawn) [2-hexyl-4-pentynoic acid]
- Class selectivity [1]: Class I

Compound: N#Cc1ccc2[nH]c(O)c(-c3ccc(CN4CCOCC4)cn3)c2c1 [AZD 1080]
- Lgr5+ Assay [2, 17]: 1 to 5 µM

Compound: Cc1c[nH]c(-c2cnc(NCCNc3ccc(C#N)cn3)nc2-c2ccc(Cl)cc2Cl)n1 [CHIR99021]
- Lgr5+ Assay [2, 17]: 2 to 6 µM
- time until cleared from the systemic circulation [3]: ≤ 24 h

Compound: COc1cc(C)[nH]c(=O)c1CNC(=O)c1c(C)n([C@H](C)C2CCOCC2)c2ccccc12 [CPI-360]
- Lgr5+ Assay [2, 18]: 0.1 to 10 µM

Compound: CCC(CC)n1ccc2c(C(=O)NCc3c(C)cc(C)[nH]c3=O)cc(C#N)cc21 [Compound E11]
- IC50 [4]: 0.243 µM
- IC50 [5]: 0.013 µM
- Lgr5+ Assay ([2]; Table 7, EZH2 inhibitors, concentration): 5 µM
- Select vs EZH-1 ([6]; given as fold): 90x

Compound: Nc1nccc2c1ncn2[C@@H]1C=C(CO)[C@@H](O)[C@H]1O [DZNep]
- Lit Cell Poten [7]: 1 µM
- Lgr5+ Assay ([2]; Table 7, EZH2 inhibitors, result in words): Activity

Compound: CCc1c(N(CC)C2CCOCC2)cc2oc(C3CCN(C(C)C)CC3)cc2c1C(=O)NCc1c(C)cc(C)[nH]c1=O [EBI-2511]
- IC50 [5]: 0.004 µM

Compound: N#Cc1c2c(c3nncn3c1NCc1ccco1)CN(Cc1ccccc1)CC2 [EED162]
- IC50 [5]: 0.03 µM

Compound: CCCc1cc(C)[nH]c(=O)c1CNC(=O)c1cc(-c2ccnc(N3CCN(C)CC3)c2)cc2c1cnn2C(C)C [GSK343]
- IC50 [5]: 0.0012 µM
- Select vs EZH-1 ([6]; given as fold): 60x

Compound: Cc1cc(C)c(CNC(=O)c2cc(-c3ccc(N4CCN(C)CC4)nc3)cc3c2cnn3C(C)C)c(=O)[nH]1 [GSK926]
- IC50 [5]: 0.0079 µM

Compound: Cc1ccc(C(=O)Nc2c[nH]nc2C(=O)NCCCOC(C)C)cn1 [GSK XXII]
- Lgr5+ Assay [2, 17]: 0.2 to 1 µM

Compound: O=C(O)c1ccc(CN2CCC(CN[C@@H]3C[C@H]3c3ccccc3)CC2)cc1 [GSK-2879552]
- pIC50 [8]: 4.70

Compound: O=C(O)CCNc1cc(N2CCc3ccccc3CC2)nc(-c2ccccn2)n1 [GSK-J1]
- Lit Cell [9]: 50 µM

Compound: CC(C)=CCC/C(C)=C/CC/C(C)=C/CC/C(C)=C/CO [Geranylgeraniol]
- IC50 [4]: 80 µM

Compound: C=CCNc1nc(N)c(C(=O)c2ccc(Cl)s2)s1 [IBS008738]
- Lgr5+ Assay [2, 19]: 1.1 to 30 µM

Compound: CN1CCN(C(=O)[C@H](CCCN[C@@H]2C[C@H]2c2ccc(F)cc2)NC(=O)c2ccc(-n3ccnn3)cc2)CC1 [IMG-7289]
- Human Plasma Conc, Cmax [10]: 63 ng/mL

Compound: N[C@H]1CC[C@H](N[C@@H]2C[C@H]2c2ccccc2)CC1 [ORY-1001]
- pIC50 [11]: < 4.00
- pIC50 [12]: < 4.00
- Lgr5+ Assay ([2]; Table 6): 0.041 µM
- Literat. Cell [13]: 0.5 to 3 nM

Compound: Cc1cc(C)c(CN2CCc3c(Cl)cc(-c4c(C)noc4C)c(Cl)c3C2=O)c(=O)[nH]1 [PF-06726304]
- Lit Cell Poten [7]: 0.01 to 0.025 µM
- IC50 [5]: 0.0011 µM

Compound: COc1cc(C)[nH]c(=O)c1CN1CCc2c(Cl)cc([C@H](OC)C3COC3)c(Cl)c2C1=O [PF-06821497]
- IC50 [5]: < 0.001 µM
- Select vs EZH-1 ([6]; given as a concentration): 70 nM

Compound: C#CCN(C)Cc1ccccc1 [Pargyline]
- IC50 [4]: 1000 µM

Compound: Oc1ccc(C=Cc2cc(O)cc(O)c2)cc1 [Resveratrol]
- IC50 [4]: 15 µM

Compound: C/C(=N\NC(=O)c1cccc(S(=O)(=O)N2CCOCC2)c1)c1cc(Cl)ccc1O [SP-2509]
- pIC50 [8]: < 3.52

Compound: Nc1ncnc2c1ncn2[C@@H]1O[C@H](C[C@@H](N)CC[C@H](N)C(=O)O)[C@@H](O)[C@H]1O [Sinefungin]
- IC50 [5]: 0.02 µM

Compound: CCCC(CCC)C(=O)[O-].[Na+] [Sodium Valproate]
- Class selectivity [1]: Class I

Compound: O=C(O)CCN(O)C(=O)CCCCCCCCC1CC1 [TC-E 5002]
- pIC50 [14]: 5.17

Compound: N[C@@H]1C[C@H]1c1ccccc1 [TCP]
- Human Plasma Conc, Cmax [10]: 30 to 200 ng/mL
- Lgr5+ Assay ([2]; Table 6, concentration range): 0.1 to 20 µM

Compound: CCCCc1nc2cc(-c3cccnc3)c(C)nc2n1Cc1ccc(-c2ccccc2-c2nn[nH]n2)cc1 [TM-25659]
- Lit Cell [15]: 10 to 100 µM
- Lgr5+ Assay [2, 19]: 10 to 100 µM

Compound: C=CCNc1nc(N)c(C(=O)c2ccc(F)s2)s1 [TT10]
- Lit Cell [15]: 1 µM
- Lgr5+ Assay [2, 19]: 1 to 10 µM

Compound: Cc1coc2c1C(=O)C(=O)c1c-2ccc2c1CC[C@H](O)[C@]2(C)O [Tanshindiol B]
- IC50 [5]: 0.52 µM

Compound: Cc1coc2c1C(=O)C(=O)c1c-2ccc2c1CC[C@@H](O)[C@]2(C)O [Tanshindiol C]
- IC50 [5]: 0.55 µM

Compound: CCCc1cc(C)[nH]c(=O)c1CNC(=O)c1cc(-c2ccc(N3CCN(C(C)C)CC3)nc2)cc2c1cnn2C(C)C [UNC1999]
- IC50 [5]: 0.01 µM

Compound: CCCc1cc(C)[nH]c(=O)c1CNC(=O)c1cc(-c2ccc(N3CCN(C(=O)CCOCCOCCOCCOCCOCCOCCOCCOCCOCCOCCOCCOCCNC(=O)CCCC[C@@H]4SC[C@@H]5NC(=O)N[C@@H]54)CC3)nc2)cc2c1cnn2C(C)C [UNC 2399]
- Lgr5+ Assay [2, 18]: 0.1 to 10 µM

Compound: CCCC(CCC)C(=O)O [VPA, valproic acid]
- concentration detected in perilymph [16]: 310.3 µM
- time to peak plasma concentrations [3]: ≤ 2 h
- time until cleared from the systemic circulation [3]: ≤ 24 h

Compound: CC(C)=CCC/C(C)=C/CC/C(C)=C/CC/C(C)=C/C(=O)O [geranylgeranoic acid]
- IC50 [4]: 120 µM

Compound: Thiourea
- pIC50 [8]: < 2.90
